# From patent publication US10246449B2, “1,2,3 triazole-thiazole compounds, process for preparation and use thereof” (Council of Scientific & Industrial Research, priority 2015, dated 2019)
row,Structure (SMILES),melting point
1,"Clc1ccc(-c2nc(Cn3cc(C4CC4)nn3)cs2)cc1 [Compound 3, 2-(4-Chlorophenyl)-4-((4-cyclopropyl-1H-1,2,3-triazol-1-yl)methyl)thiazole]",109 to 111 °C
2,"CCCCc1cn(Cc2csc(-c3ccc(Cl)cc3)n2)nn1 [Compound 2, 4-((4-Butyl-1H-1,2,3-triazol-1-yl)methyl)-2-(4-chlorophenyl)thiazole]",98 to 99 °C
3,"OCc1cn(Cc2csc(-c3ccc(Cl)cc3)n2)nn1 [Compound 4, (1-((2-(4-Chlorophenyl)thiazol-4-yl)methyl)-1H-1,2,3-triazol-4-yl)methanol]",152 to 154 °C
4,"CCCCCc1cn(Cc2csc(-c3ccc(Cl)cc3)n2)nn1 [Compound 5, 2-(4-Chlorophenyl)-4-((4-pentyl-1H-1,2,3-triazol-1-yl)methyl)thiazole]",88 to 90 °C

# Other lines, results leading:
row,melting point,Structure (SMILES)
1,175 to 177 °C,"Clc1ccc(-c2nc(Cn3nncc3-c3ccccc3)cs2)cc1 [Compound 9, 2-(4-chlorophenyl)-4-((5-phenyl-1H-1,2,3-triazol-1-yl)methyl)thiazole]"
2,92 to 94 °C,"Clc1ccc(-c2nc(Cn3cc(COC4CCCCO4)nn3)cs2)cc1 (centres unmarked) [Compound 6, 2-(4-Chlorophenyl)-4-((4-(((tetrahydro-2H-pyran-2-yl)oxy)methyl)-1H-1,2,3-triazol-1-yl)methyl)thiazole]"
3,157 to 159 °C,"OCCCCc1cn(Cc2csc(-c3ccc(Cl)cc3)n2)nn1 [Compound 8, 4-(1-((2-(4-Chlorophenyl)thiazol-4-yl)methyl)-1H-1,2,3-triazol-4-yl)butan-1-ol]"
4,149 to 151 °C,"CCOC(=O)c1cn(Cc2csc(-c3ccc(Cl)cc3)n2)nn1 [Compound 7, Ethyl 1-((2-(4-chlorophenyl)thiazol-4-yl)methyl)-1H-1,2,3-triazole-4-carboxylate]"
